From US20080070952A1, “Inhibition or Treatment of Dyskinesia” (PROXIMAGEN LTD.,, priority 2005, published 2008)

Tested on: L-DOPA primed MPTP treated animals (common marmosets)
Assay: L-DOPA induced motor activity, motor disability and dyskinesia (chorea, dystonia) in L-DOPA primed MPTP treated marmosets
Assay type: in vivo, Callithrix Jacchus
Conditions: same protocol as Examples 1-8; NOS inhibitors s.c., Vinyl L-NIO 6 mg/kg, 7-NI 20 mg/kg, L-NIO dose not given
Description: In the following procedure, all NOS inhibitors (nNOSi) were administered subcutaneously. All other drugs with the exception of 7-nitroindazole were dissolved in deionised water or for oral administration dissolved in deionised water containing 10% sucrose and were administered orally. 7-nitroindazole was dissolved in a 30:70 v/v in water and DMSO. In experiments using ropinirole, animals were pre-treated with a single oral dose of domperidone (5 mg·kg^−1) as an anti-emetic, 30 min before. Carbidopa and domperidone were given as suspension in deionised water and 10% sucrose.
Adult common marmosets of either sex (Callithrix Jacchus; n=6), weighing between 310 to 380 g were used in this study. Marmosets were housed either in pairs or individually at a temperature of 25±1_ C with 50% relative humidity on a 12-hour light-dark cycle. Animals were fed once daily on a diet of fresh fruit, nuts, Mazuri food pellets, and a supplement of vitamin D3 and had free access to water. On experimental days, the animals were fed following completion of behavioural testing.
Marmosets were treated with 1-methyl-4-phenyl-1,2,3,6-tetrahydropyridine hydrochloride (2.0 mg·kg^−1 subcutaneously; MPTP-HCl; Research Biochemicals International; dissolved in 0.9% sterile saline) daily for 5 consecutive days. This treatment regimen induces a persistent and stable syndrome of akinesia, bradykinesia, rigidity, postural abnormality, incoordination and postural tremor (Jenner and Marsden, 1986; Pearce et al., 1995). Animals were hand fed on a cocktail of Mazuri marmoset jelly, dried milk and pureed bananas until body weight had returned towards pre-treatment levels.
Eight weeks following MPTP-treatment, all animals (n=6) were treated for 30 to 40 days with 12.5 mg·kg^−1 L-DOPA methyl ester (Sigma) plus 12.5 mg·kg^−1 carbidopa (Merck Sharp & Dohme) by oral gavage on a daily basis. Carbidopa was administered 30 to 45 min prior to L-DOPA treatment (Pearce et al., 1995). When animals became dyskinetic, daily dosing with a combination of L-DOPA/carbidopa was changed to a once a week treatment. At this point and on, once a week L-DOPA/carbidopa treatment produced similar level of dyskinesia to that produced at the end of the daily priming period. […]
Motor Activity: Motor activity was measured in test cages equipped with an array of 8 infra red photo sensors (perspex fronted aluminium cages, 50×60×70 cm), The number of beam interruptions due to movement was counted and summed in bins of 10 minute interval using an analogue to digital converter attached to an Intel-based PC. Motor activity was measured over a period of 6 hours and expressed both as time course measuring the number of beam interruption occurring in 10 min time segments, or as the total number of beam interruptions over the test period. […]

N=C(N)SCCN [S-(2-aminoethyl)-ITU, S-(2-aminoethyl)-isothiourea]
L-Dopa induced dyskinesia: did not reduce

O=[N+]([O-])c1cccc2cn[nH]c12 [7-NI, 7-nitroindazole]
L-Dopa induced dyskinesia: reduced

N=C(N)SCCc1cccc(CCSC(=N)N)c1 [1,3 PB-ITU, S,S′-1,3-Phenylene-bis(1,2-ethanediyl)-bis-isothiourea]
L-Dopa induced dyskinesia: did not reduce

C=CCC(=N)NCCC[C@H](N)C(=O)O [Vinyl L-NIO, L-N5-(1-imino-3-butenyl)-ornithine]
L-Dopa induced dyskinesia: reduced
